Laboratory results reported in patent publication US12649750B2, “Macrocyclic compounds, compositions, and methods of using thereof” (Sionna Therapeutics Inc., priority 2022, dated 2026).

Columns and labels:
[1] = biological target: T1, CFTR (Homo sapiens, UniProt P13569, DEL508-508); test: TECC24 AUC fold over DMSO @10 μM, CFTR-mediated transepithelial chloride transport in CF-HBE cells; type: cell-based; conditions: test agent AUC divided by DMSO vehicle AUC, primary CF-HBE cells, ΔF508 homozygous donor, 48 hours incubation
T1 construct: Primary human bronchial epithelial cells from a ΔF508 homozygous CF donor; host or cells: primary human bronchial epithelial cells (CF-HBE), ΔF508 homozygous donor
Procedure, shortened: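 ΔF508-homozygous primary bronchial epithelial cells incubated 48 h at 36.5° C with compound (10 μM) in IL-13-containing medium, then TECC24 current-clamp recording in pH 7.4 Hepes saline with benzamil 10 μM, forskolin 10 μM, then CFTR inhibitor-172 20 μM. Equivalent Cl− current AUC between forskolin and inhibitor, expressed as fold over DMSO.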

[2] = biological target: T2, NBD1 (Homo sapiens, UniProt P13569); test: Aggregation analysis using differential static light scattering (DSLS), thermal stability of NBD1 (ΔTagg); type: binding; conditions: ΔTagg versus DMSO control, NBD1 0.2 mg/ml
T2 construct: Purified recombinant NBD1 was produced using previously described methods; made in house
Procedure, shortened: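 Purified recombinant NBD1 at 0.2 mg/ml in Tris buffer pH7.6 with 2 mM ATP, 5 mM MgCl2, 2 mM DTT and 1% glycerol was mixed with DMSO-dissolved compounds under mineral oil. Plates were heated at 1° C. per minute to 70° C., light scattering imaged every 0.5° C.; Tagg from curve inflection, minus DMSO-control mean.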

T2 sequence (P13569 423-646 limits assumed): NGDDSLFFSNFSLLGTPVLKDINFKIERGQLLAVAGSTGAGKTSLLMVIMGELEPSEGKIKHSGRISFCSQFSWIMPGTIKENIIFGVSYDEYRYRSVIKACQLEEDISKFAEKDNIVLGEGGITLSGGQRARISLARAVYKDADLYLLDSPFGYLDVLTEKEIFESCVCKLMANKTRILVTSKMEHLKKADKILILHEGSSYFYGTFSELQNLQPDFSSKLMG
T1 sequence (P13569 with tags, fused parts or gaps DEL508-508): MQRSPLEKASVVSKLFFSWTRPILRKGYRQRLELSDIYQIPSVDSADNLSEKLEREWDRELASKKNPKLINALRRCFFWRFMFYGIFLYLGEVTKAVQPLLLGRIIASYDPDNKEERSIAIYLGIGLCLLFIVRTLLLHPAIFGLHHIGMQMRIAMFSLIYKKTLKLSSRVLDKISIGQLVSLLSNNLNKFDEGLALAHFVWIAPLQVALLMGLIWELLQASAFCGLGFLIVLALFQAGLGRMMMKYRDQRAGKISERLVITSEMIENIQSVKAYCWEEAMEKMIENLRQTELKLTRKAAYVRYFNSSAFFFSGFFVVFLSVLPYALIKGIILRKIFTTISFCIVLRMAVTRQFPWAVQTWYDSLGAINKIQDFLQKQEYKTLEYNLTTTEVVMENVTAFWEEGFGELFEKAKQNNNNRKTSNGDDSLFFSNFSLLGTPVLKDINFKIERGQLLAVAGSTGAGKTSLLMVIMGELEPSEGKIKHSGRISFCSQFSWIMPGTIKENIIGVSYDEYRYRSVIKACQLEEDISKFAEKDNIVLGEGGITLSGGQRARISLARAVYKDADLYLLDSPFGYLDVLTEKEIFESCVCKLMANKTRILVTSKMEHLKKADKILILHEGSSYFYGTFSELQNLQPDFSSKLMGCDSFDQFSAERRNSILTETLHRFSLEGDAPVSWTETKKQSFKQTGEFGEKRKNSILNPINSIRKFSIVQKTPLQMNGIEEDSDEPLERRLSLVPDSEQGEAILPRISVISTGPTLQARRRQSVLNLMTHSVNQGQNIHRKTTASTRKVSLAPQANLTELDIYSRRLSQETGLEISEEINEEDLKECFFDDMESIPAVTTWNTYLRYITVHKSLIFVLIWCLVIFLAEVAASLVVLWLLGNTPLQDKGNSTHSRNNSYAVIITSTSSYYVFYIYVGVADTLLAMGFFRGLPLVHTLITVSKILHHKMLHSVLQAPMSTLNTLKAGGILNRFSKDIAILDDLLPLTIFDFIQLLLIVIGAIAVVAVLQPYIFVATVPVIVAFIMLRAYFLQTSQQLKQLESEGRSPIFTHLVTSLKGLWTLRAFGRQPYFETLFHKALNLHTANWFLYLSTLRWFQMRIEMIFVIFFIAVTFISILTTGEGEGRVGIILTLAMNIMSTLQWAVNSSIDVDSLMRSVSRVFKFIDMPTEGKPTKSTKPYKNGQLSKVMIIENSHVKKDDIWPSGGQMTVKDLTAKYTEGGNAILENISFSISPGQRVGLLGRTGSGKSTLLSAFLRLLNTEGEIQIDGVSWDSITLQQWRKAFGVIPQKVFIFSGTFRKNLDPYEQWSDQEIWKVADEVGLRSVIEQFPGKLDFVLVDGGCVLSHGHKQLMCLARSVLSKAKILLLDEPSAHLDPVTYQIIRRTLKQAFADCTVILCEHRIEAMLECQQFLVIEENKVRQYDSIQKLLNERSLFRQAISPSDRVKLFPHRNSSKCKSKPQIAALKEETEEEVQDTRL

SMILES	TECC (AUC, 10 μM) [1]	DSLS 3D (100 μM ΔT) [2]
C[C@@H](Cc1cccc([C@@]2(C)CCCC(C)(C)CS(=O)(=O)CCc3c(c(F)cc4[nH]ccc34)[S+]([O-])c3ccc(F)c(c3)-c3nc2nn3C)c1)C(=O)O (single isomer, unassigned) [Compound 204]	C (a value between 20 and 80 is marked “C”)	C (a value greater than 10 °C and less than or equal to 25 °C is marked “C”)
C[C@@H](Cc1cccc([C@@]2(C)CCCC(C)(C)CS(=O)(=O)CCc3c(c(F)cc4[nH]ccc34)[S+]([O-])c3ccc(F)c(c3)-c3nc2nn3C)c1)C(=O)O (single isomer, unassigned) [Compound 205]	A (a TECC value less than 12 is marked “A”)	B (a value above 5 °C and less than or equal to 10 °C is marked “B”)
C[C@H](Cc1cccc([C@@]2(C)CCCC(C)(C)CS(=O)(=O)CCc3c(c(F)cc4[nH]ccc34)[S+]([O-])c3ccc(F)c(c3)-c3nc2nn3C)c1)C(=O)O (single isomer, unassigned) [Compound 206A]	C (a value between 20 and 80 is marked “C”)	C (a value greater than 10 °C and less than or equal to 25 °C is marked “C”)
C[C@H](Cc1cccc([C@@]2(C)CCCC(C)(C)CS(=O)(=O)CCc3c(c(F)cc4[nH]ccc34)[S+]([O-])c3ccc(F)c(c3)-c3nc2nn3C)c1)C(=O)O (single isomer, unassigned) [Compound 206B]	A (a TECC value less than 12 is marked “A”)	B (a value above 5 °C and less than or equal to 10 °C is marked “B”)
Cn1nc2nc1-c1cc(ccc1F)[S+]([O-])c1c(F)cc3[nH]ccc3c1CCS(=O)(=O)CC(C)(C)CCC[C@]2(C)c1cccc(CC(=O)O)c1 (single isomer, unassigned) [Compound 209A]	A (a TECC value less than 12 is marked “A”)	B (a value above 5 °C and less than or equal to 10 °C is marked “B”)
Cn1nc2nc1-c1cc(ccc1F)[S+]([O-])c1c(F)cc3[nH]ccc3c1CCS(=O)(=O)CC(C)(C)CCC[C@]2(C)c1cccc(CC(=O)O)c1 (single isomer, unassigned) [Compound 209B]	C (a value between 20 and 80 is marked “C”)	C (a value greater than 10 °C and less than or equal to 25 °C is marked “C”)
C[C@@H](Cc1cccc([C@@]2(C)CCCC(C)(C)CS(=O)(=O)CCc3c(c(F)cc4[nH]ccc34)[S+]([O-])c3cccc(c3)-c3nc2nn3C)c1)C(=O)O (single isomer, unassigned) [Compound 211A]	B (a value between 12-20 is marked “B”)	C (a value greater than 10 °C and less than or equal to 25 °C is marked “C”)
C[C@@H](Cc1cccc([C@@]2(C)CCCC(C)(C)CS(=O)(=O)CCc3c(c(F)cc4[nH]ccc34)[S+]([O-])c3cccc(c3)-c3nc2nn3C)c1)C(=O)O (single isomer, unassigned) [Compound 211B]	A (a TECC value less than 12 is marked “A”)	C (a value greater than 10 °C and less than or equal to 25 °C is marked “C”)
Cn1nc2nc1-c1cc(ccc1F)[S+]([O-])c1c(F)cc3[nH]ccc3c1CCS(=O)(=O)CC(C)(C)CCC[C@]2(C)c1cccc(CCC(=O)O)c1 (single isomer, unassigned) [Compound 215A]	A (a TECC value less than 12 is marked “A”)	C (a value greater than 10 °C and less than or equal to 25 °C is marked “C”)
Cn1nc2nc1-c1cc(ccc1F)[S+]([O-])c1c(F)cc3[nH]ccc3c1CCS(=O)(=O)CC(C)(C)CCC[C@]2(C)c1cccc(CCC(=O)O)c1 (single isomer, unassigned) [Compound 215B]	C (a value between 20 and 80 is marked “C”)	C (a value greater than 10 °C and less than or equal to 25 °C is marked “C”)
Cn1nc2nc1-c1cc(ccc1F)[S+]([O-])c1c(F)cc3[nH]ccc3c1CCS(=O)(=O)CC(C)(C)CCC[C@]2(C)c1cccc(CCO)c1 (single isomer, unassigned) [Compound 216A]	B (a value between 12-20 is marked “B”)	B (a value above 5 °C and less than or equal to 10 °C is marked “B”)
Cn1nc2nc1-c1cc(ccc1F)[S+]([O-])c1c(F)cc3[nH]ccc3c1CCS(=O)(=O)CC(C)(C)CCC[C@]2(C)c1cccc(CCO)c1 (single isomer, unassigned) [Compound 216B]	C (a value between 20 and 80 is marked “C”)	C (a value greater than 10 °C and less than or equal to 25 °C is marked “C”)
COCC(Cc1cccc([C@@]2(C)CCCC(C)(C)CS(=O)(=O)CCc3c(c(F)cc4[nH]ccc34)[S+]([O-])c3ccc(F)c(c3)-c3nc2nn3C)c1)C(=O)O (single isomer, unassigned) [Compound 218A]	A (a TECC value less than 12 is marked “A”)	B (a value above 5 °C and less than or equal to 10 °C is marked “B”)
COCC(Cc1cccc([C@@]2(C)CCCC(C)(C)CS(=O)(=O)CCc3c(c(F)cc4[nH]ccc34)[S+]([O-])c3ccc(F)c(c3)-c3nc2nn3C)c1)C(=O)O (single isomer, unassigned) [Compound 218B]	C (a value between 20 and 80 is marked “C”)	C (a value greater than 10 °C and less than or equal to 25 °C is marked “C”)
Cn1nc2nc1-c1cc(ccc1F)[S+]([O-])c1c(F)cc3[nH]ccc3c1CCS(=O)(=O)CC(C)(C)CCC[C@]2(C)c1cccc(CCS(C)(=O)=O)c1 (single isomer, unassigned) [Compound 220A]	A (a TECC value less than 12 is marked “A”)	A (an ΔTagg value less than or equal to 5 °C is marked “A”)
Cn1nc2nc1-c1cc(ccc1F)[S+]([O-])c1c(F)cc3[nH]ccc3c1CCS(=O)(=O)CC(C)(C)CCC[C@]2(C)c1cccc(CCS(C)(=O)=O)c1 (single isomer, unassigned) [Compound 220B]	C (a value between 20 and 80 is marked “C”)	C (a value greater than 10 °C and less than or equal to 25 °C is marked “C”)
C[C@@H](Cc1cccc([C@@]2(C)CCCC(C)(C)CS(=O)(=O)CCc3c(c(F)cc4[nH]ccc34)[S+]([O-])c3ccnc(c3)-c3nc2nn3C)c1)C(=O)O (single isomer, unassigned) [Compound 222A]	C (a value between 20 and 80 is marked “C”)	B (a value above 5 °C and less than or equal to 10 °C is marked “B”)
C[C@@H](Cc1cccc([C@@]2(C)CCCC(C)(C)CS(=O)(=O)CCc3c(c(F)cc4[nH]ccc34)[S+]([O-])c3ccnc(c3)-c3nc2nn3C)c1)C(=O)O (single isomer, unassigned) [Compound 222B]	C (a value between 20 and 80 is marked “C”)	C (a value greater than 10 °C and less than or equal to 25 °C is marked “C”)
